{"source": "ChEMBL document CHEMBL2074248", "about": "“Regulation of biliary drug efflux pump expression by hormones and xenobiotics” (Toxicology, 2001)", "key": {"[1]": {"target": "T1, Bile salt export pump (Rattus norvegicus, UniProt O70127)", "T1 sequence (O70127 whole entry)": "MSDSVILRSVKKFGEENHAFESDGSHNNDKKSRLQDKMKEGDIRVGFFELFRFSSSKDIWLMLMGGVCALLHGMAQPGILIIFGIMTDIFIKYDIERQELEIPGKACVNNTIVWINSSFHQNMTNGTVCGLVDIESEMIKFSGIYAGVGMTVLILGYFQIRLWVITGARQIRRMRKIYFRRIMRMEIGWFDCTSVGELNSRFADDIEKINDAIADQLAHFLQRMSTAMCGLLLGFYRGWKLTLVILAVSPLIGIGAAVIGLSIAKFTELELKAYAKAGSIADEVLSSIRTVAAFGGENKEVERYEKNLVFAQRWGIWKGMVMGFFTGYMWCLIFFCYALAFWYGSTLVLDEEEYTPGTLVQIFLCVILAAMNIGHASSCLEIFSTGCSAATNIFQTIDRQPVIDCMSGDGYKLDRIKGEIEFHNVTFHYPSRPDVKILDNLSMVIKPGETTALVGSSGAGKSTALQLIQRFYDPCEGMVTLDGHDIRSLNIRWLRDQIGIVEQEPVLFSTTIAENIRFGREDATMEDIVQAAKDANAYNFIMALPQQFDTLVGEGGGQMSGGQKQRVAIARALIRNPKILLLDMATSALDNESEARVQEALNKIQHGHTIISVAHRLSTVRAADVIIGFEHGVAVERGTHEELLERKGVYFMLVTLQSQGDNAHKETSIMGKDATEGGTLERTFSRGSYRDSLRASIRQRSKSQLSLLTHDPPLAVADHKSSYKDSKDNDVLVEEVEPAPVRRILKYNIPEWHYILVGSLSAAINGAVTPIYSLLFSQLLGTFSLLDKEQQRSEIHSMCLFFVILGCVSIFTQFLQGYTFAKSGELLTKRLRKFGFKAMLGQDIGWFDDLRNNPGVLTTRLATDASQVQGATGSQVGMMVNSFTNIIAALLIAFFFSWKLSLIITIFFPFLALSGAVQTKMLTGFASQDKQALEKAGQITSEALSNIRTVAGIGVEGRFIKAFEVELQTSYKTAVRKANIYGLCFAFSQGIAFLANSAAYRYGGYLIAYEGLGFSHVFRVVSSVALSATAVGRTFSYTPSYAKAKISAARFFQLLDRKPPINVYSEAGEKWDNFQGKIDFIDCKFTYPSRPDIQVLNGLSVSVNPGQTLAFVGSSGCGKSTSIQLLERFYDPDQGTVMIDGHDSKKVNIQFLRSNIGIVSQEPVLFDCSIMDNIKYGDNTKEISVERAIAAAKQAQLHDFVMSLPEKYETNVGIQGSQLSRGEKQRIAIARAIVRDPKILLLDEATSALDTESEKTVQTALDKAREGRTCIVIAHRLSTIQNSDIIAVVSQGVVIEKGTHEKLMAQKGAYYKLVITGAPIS", "test": "TP_TRANSPORTER: Northern blot from primary hepatocytes", "assay_type": "functional, cell-based, Sprague-Dawley, Hepatocyte"}, "[2]": {"target": "T1, Bile salt export pump", "test": "TP_TRANSPORTER: Northern blot in vivo rat", "assay_type": "functional, organism-based, Liver"}}, "data": [{"smiles": "C[C@@H]1C[C@H]2[C@@H]3CCC4=CC(=O)C=C[C@]4(C)[C@@]3(F)[C@@H](O)C[C@]2(C)[C@@]1(O)C(=O)CO", "note": "[DEXAMETHASONE]", "values": [{"measurement": "Activity", "setting": "[1]", "result": "inducer [+]"}, {"measurement": "Activity", "setting": "[2]", "result": "inducer [+]"}]}]}
